Source: patent publication US8232269B2, “Amide compounds useful in therapy” (Pfizer Inc., priority 2008, dated 2012)

What follows are compounds tested against T1, Progesterone Receptor (PR) (Homo sapiens, UniProt P06401) (assay: In vitro functional assay for progesterone receptor (PR) antagonists: inhibition of progesterone-induced alkaline phosphatase expression in T47D cells). Conditions: antagonist format, 5 nM progesterone, Ki calculated from IC50 with the Cheng-Prusoff equation.
T1 construct: endogenous in cells; host or cells: T47D human breast mammary carcinoma cells
T1 sequence (P06401 1-933): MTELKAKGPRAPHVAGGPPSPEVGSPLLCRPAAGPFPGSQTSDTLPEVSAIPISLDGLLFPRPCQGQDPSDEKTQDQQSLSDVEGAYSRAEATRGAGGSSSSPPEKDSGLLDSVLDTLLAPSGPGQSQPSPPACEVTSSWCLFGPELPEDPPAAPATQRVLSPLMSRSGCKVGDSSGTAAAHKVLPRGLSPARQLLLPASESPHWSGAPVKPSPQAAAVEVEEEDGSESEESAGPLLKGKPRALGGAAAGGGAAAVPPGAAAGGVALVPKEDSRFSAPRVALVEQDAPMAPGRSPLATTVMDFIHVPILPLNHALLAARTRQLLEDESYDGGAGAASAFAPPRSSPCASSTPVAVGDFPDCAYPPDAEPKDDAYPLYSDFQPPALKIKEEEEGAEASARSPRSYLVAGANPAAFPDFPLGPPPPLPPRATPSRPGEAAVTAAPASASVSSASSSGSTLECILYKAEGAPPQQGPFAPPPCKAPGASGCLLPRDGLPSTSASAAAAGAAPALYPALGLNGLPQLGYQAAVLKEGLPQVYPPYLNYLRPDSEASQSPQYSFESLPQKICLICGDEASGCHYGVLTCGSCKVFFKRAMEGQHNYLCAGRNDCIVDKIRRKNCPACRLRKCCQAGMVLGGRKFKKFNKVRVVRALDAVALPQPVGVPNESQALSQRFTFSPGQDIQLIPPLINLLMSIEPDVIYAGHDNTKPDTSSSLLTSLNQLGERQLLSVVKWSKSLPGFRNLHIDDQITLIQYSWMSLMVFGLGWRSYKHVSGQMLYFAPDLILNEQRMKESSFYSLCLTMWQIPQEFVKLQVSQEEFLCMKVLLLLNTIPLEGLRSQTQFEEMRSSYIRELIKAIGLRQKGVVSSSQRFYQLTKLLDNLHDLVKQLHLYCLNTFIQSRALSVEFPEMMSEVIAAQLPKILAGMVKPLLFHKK
Assay type: cell-based
How it was run: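 Antagonist format: T47D cells (8750/well, phenol red-free DMEM + 5% CS-FCS) given half-log compound dilutions plus 5 nM progesterone (final), incubated overnight (≥16 h) at 37 °C. Alkaline phosphatase read by CSPD chemiluminescence after freeze-thaw lysis; 0.1 μM RU-486 final defines minimum.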

Structure (SMILES)	Ki
Cc1c(-c2ccc(C#N)cc2)nn(C2CCC2)c1C(=O)NC[C@@H](C)O [Example 73, 3-(4-Cyanophenyl)-1-cyclobutyl-N-[(2R)-2-hydroxypropyl]-4-methyl-1H-pyrazole-5-carboxamide]	29.1 nM
Cc1c(-c2ccc(C#N)cc2)nn(C2CCC2)c1C(=O)NCC(C)(C)O [Example 74, 3-(4-Cyanophenyl)-1-cyclobutyl-N-(2-hydroxy-2-methylpropyl)-4-methyl-1H-pyrazole-5-carboxamide]	18.5 nM
CNC(=O)c1c(C)c(-c2ccc(C#N)cc2)nn1C1CC1 [Example 81, 3-(4-Cyanophenyl)-1-cyclopropyl-N,4-dimethyl-1H-pyrazole-5-carboxamide]	61.2 nM
Cc1c(-c2ccc(C#N)cc2)nn(C2CC2)c1C(=O)NCC1CC1 [Example 82, 3-(4-Cyanophenyl)-1-cyclopropyl-N-(cyclopropylmethyl)-4-methyl-1H-pyrazole-5-carboxamide]	70.2 nM
Cc1c(-c2ccc(C#N)cc2)nn(C2CC2)c1C(=O)NC[C@@H](C)O [Example 87, 3-(4-Cyanophenyl)-1-cyclopropyl-N-[(2R)-2-hydroxypropyl]-4-methyl-1H-pyrazole-5-carboxamide]	> 191 nM
CCNC(=O)c1c(C#N)c(-c2ccc(C#N)cc2)nn1C(C)C [Example 89, 4-Cyano-3-(4-cyanophenyl)-N-ethyl-1-isopropyl-1H-pyrazole-5-carboxamide]	7.75 nM
CC(C)NC(=O)c1c(C#N)c(-c2ccc(C#N)cc2)nn1C(C)C [Example 91, 4-Cyano-3-(4-cyanophenyl)-N,1-diisopropyl-1H-pyrazole-5-carboxamide]	6.48 nM
CC(C)n1nc(-c2ccc(C#N)cc2)c(Cc2ccccc2)c1C(=O)NC1CC1 [Example 96, 4-Benzyl-3-(4-cyanophenyl)-N-cyclopropyl-1-isopropyl-1H-pyrazole-5-carboxamide]	374 nM
CCNC(=O)c1c(Cc2ccccc2)c(-c2ccc(C#N)cc2)nn1C(C)C [Example 97, 4-Benzyl-3-(4-cyanophenyl)-N-ethyl-1-isopropyl-1H-pyrazole-5-carboxamide]	399 nM
CC(C)n1nc(-c2ccc(C#N)cc2)c(C2CC(F)(F)C2)c1C(=O)NC1CC1 [Example 98, 3-(4-Cyanophenyl)-N-cyclopropyl-4-(3,3-difluorocyclobutyl)-1-isopropyl-1H-pyrazole-5-carboxamide]	208 nM
CNC(=O)c1c(C2CC(F)(F)C2)c(-c2ccc(C#N)cc2)nn1C(C)C [Example 99, 3-(4-Cyanophenyl)-4-(3,3-difluorocyclobutyl)-1-isopropyl-N-methyl-1H-pyrazole-5-carboxamide]	52.5 nM
CCNC(=O)c1c(C2CC(F)(F)C2)c(-c2ccc(C#N)cc2)nn1C(C)C [Example 100, 3-(4-Cyanophenyl)-4-(3,3-difluorocyclobutyl)-N-ethyl-1-isopropyl-1H-pyrazole-5-carboxamide]	151 nM
CCc1c(-c2ccc(C#N)cc2)nn(C(C)CC)c1C(=O)NC[C@H](C)O (stereo partly drawn) [Example 108, 1-sec-Butyl-3-(4-cyanophenyl)-4-ethyl-N-[(2S)-2-hydroxypropyl]-1H-pyrazole-5-carboxamide]	91.4 nM
CNC(=O)CNC(=O)c1c(C)c(-c2ccc(C#N)c(C)c2)nn1C(C)C [Example 113, 3-(4-Cyano-3-methylphenyl)-1-isopropyl-4-methyl-N-[2-(methylamino)-2-oxoethyl]-1H-pyrazole-5-carboxamide]	27.1 nM
CCc1c(-c2ccc(C#N)cc2)nn(C(C)C)c1C(=O)NC[C@@H](C)O [Example 115, 3-(4-Cyanophenyl)-4-ethyl-N-[(2R)-2-hydroxypropyl]-1-isopropyl-1H-pyrazole-5-carboxamide]	85 nM
CCNC(=O)c1c(CC)c(-c2ccc(C#N)cc2)nn1C(C)C [Example 116, 3-(4-Cyanophenyl)-N,4-diethyl-1-isopropyl-1H-pyrazole-5-carboxamide]	32.1 nM
CCc1c(-c2ccc(C#N)cc2)nn(C(C)C)c1C(=O)NC(C)C [Example 117, 3-(4-Cyanophenyl)-4-ethyl-N,1-diisopropyl-1H-pyrazole-5-carboxamide]	36.4 nM
CCc1c(-c2ccc(C#N)cc2)nn(C(C)C)c1C(=O)NCC(=O)NC [Example 119, 3-(4-Cyanophenyl)-4-ethyl-1-isopropyl-N-[2-(methylamino)-2-oxoethyl]-1H-pyrazole-5-carboxamide]	> 145 nM

Further lines, results first:

Ki	Structure (SMILES)
96.5 nM	CCNC(=O)c1c(C)c(-c2ccc(C#N)cc2)nn1C1CC1 [Example 83, 3-(4-Cyanophenyl)-1-cyclopropyl-N-ethyl-4-methyl-1H-pyrazole-5-carboxamide]
125 nM	Cc1c(-c2ccc(C#N)cc2)nn(C2CC2)c1C(=O)NC1CC1 [Example 84, 3-(4-Cyanophenyl)-N,1-dicyclopropyl-4-methyl-1H-pyrazole-5-carboxamide]
139 nM	Cc1c(-c2ccc(C#N)cc2)nn(C2CC2)c1C(=O)NC(C)C [Example 85, 3-(4-Cyanophenyl)-1-cyclopropyl-N-isopropyl-4-methyl-1H-pyrazole-5-carboxamide]
> 137 nM	Cc1c(-c2ccc(C#N)cc2)nn(C2CC2)c1C(=O)NC[C@H](C)O [Example 86, 3-(4-Cyanophenyl)-1-cyclopropyl-N-[(2S)-2-hydroxypropyl]-4-methyl-1H-pyrazole-5-carboxamide]
8.84 nM	CNC(=O)c1c(C#N)c(-c2ccc(C#N)cc2)nn1C(C)C [Example 92, 4-Cyano-3-(4-cyanophenyl)-1-isopropyl-N-methyl-1H-pyrazole-5-carboxamide]
10.6 nM	CC(C)n1nc(-c2ccc(C#N)cc2)c(C#N)c1C(=O)NC1CC1 [Example 94, 4-Cyano-3-(4-cyanophenyl)-N-cyclopropyl-1-isopropyl-1H-pyrazole-5-carboxamide]
315 nM	CC(C)NC(=O)c1c(Cc2ccccc2)c(-c2ccc(C#N)cc2)nn1C(C)C [Example 95, 4-Benzyl-3-(4-cyanophenyl)-N,1-diisopropyl-1H-pyrazole-5-carboxamide]
8.24 nM	CCc1c(-c2ccc(C#N)cc2)nn(C(C)C)c1C(=O)NCC1CC1 [Example 110, 3-(4-Cyanophenyl)-N-(cyclopropylmethyl)-4-ethyl-1-isopropyl-1H-pyrazole-5-carboxamide]
23.1 nM	CCc1c(-c2ccc(C#N)cc2)nn(C(C)C)c1C(=O)NC1CC1 [Example 111, 3-(4-Cyanophenyl)-N-cyclopropyl-4-ethyl-1-isopropyl-1H-pyrazole-5-carboxamide]
26 nM	CCc1c(-c2ccc(C#N)cc2)nn(C(C)C)c1C(=O)NC [Example 112, 3-(4-Cyanophenyl)-4-ethyl-1-isopropyl-N-methyl-1H-pyrazole-5-carboxamide]
30.9 nM	CCc1c(-c2ccc(C#N)cc2)nn(C(C)C)c1C(=O)NC[C@H](C)O [Example 114, 3-(4-Cyanophenyl)-4-ethyl-N-[(2S)-2-hydroxypropyl]-1-isopropyl-1H-pyrazole-5-carboxamide]
54.8 nM	CCc1c(-c2ccc(C#N)cc2)nn(C(C)C)c1C(=O)NCC(C)(C)O [Example 118, 3-(4-Cyanophenyl)-4-ethyl-N-(2-hydroxy-2-methylpropyl)-1-isopropyl-1H-pyrazole-5-carboxamide]
8.66 nM	CNC(=O)CNC(=O)c1c(C2CC2)c(-c2ccc(C#N)c(C)c2)nn1C(C)C [Example 120, 3-(4-Cyano-3-methylphenyl)-4-cyclopropyl-1-isopropyl-N-[2-(methylamino)-2-oxoethyl]-1H-pyrazole-5-carboxamide]
